Test results as given in ChEMBL document CHEMBL4049384, “Synthesis and evaluation of an injectable everolimus prodrug” (Bioorg Med Chem Lett, 2017).
Converted amounts (≈) assume the structure as drawn.

How the values were obtained:
[1] = system: Mus musculus; experiment: Toxicity in nude mouse xenografted with human OS-RC-2 cells assessed as body weight loss at 6 mg/kg administered three times a week through oral gavage measured after 32 days (reference value: 33%); type: organism-based; details: in vivo, 768 h
[2] = Solubility of the compound in water; type: physicochemical
[3] = system: HepG2; experiment: Antiproliferative activity against human HepG2 cells after 48 hrs by MTT assay; type: functional, cell-based; details: HepG2, 48 h
[4] = system: NCI-H460; experiment: Antiproliferative activity against human NCI-H460 cells after 48 hrs by MTT assay; type: functional, cell-based; details: NCI-H460, 48 h
[5] = system: DU-145; experiment: Antiproliferative activity against human DU145 cells after 48 hrs by MTT assay; type: functional, cell-based; details: DU-145, 48 h
[6] = system: PC-3; experiment: Antiproliferative activity against human PC3 cells after 48 hrs by MTT assay; type: functional, cell-based; details: PC-3, 48 h
[7] = system: MDA-MB-435; experiment: Antiproliferative activity against human MDA-MB-435 cells after 48 hrs by MTT assay; type: functional, cell-based; details: MDA-MB-435, 48 h
[8] = system: OS-RC-2; experiment: Antitumor activity against human OS-RC2 cells xenografted in nude mouse assessed as tumor weight at 6 mg/kg administered three times a week through oral gavage measured after 32 days (reference value: 0.68 +/- 0.06 g); type: functional
[9] = system: OS-RC-2; experiment: Antitumor activity against human OS-RC2 cells xenografted in nude mouse assessed as tumor growth inhibition at 6 mg/kg administered three times a week through oral gavage measured after 32 days relative to control; type: functional; details: OS-RC-2, po, 768 h, read-out: TGI
[10] = AUC (0 to infinity) in Sprague-Dawley rat at 10 mg/kg, po; type: ADME, organism-based; parameters: dose 10 mg/kg, route oral, time infinity; details: in vivo
[11] = AUC (0 to t) in Sprague-Dawley rat at 10 mg/kg, po; type: ADME, organism-based; details: in vivo
[12] = Cmax in Sprague-Dawley rat at 10 mg/kg, po; type: ADME, organism-based; parameters: dose 10 mg/kg, route oral; details: in vivo
[13] = Tmax in Sprague-Dawley rat at 10 mg/kg, po; type: ADME, organism-based; details: in vivo
[14] = Half life in Sprague-Dawley rat at 10 mg/kg, po; type: ADME, organism-based; details: in vivo
[15] = Drug uptake in Sprague-Dawley rat blood at 10 mg/kg, po after 0.25 hrs by HPLC method; type: ADME, organism-based; details: read-out: Drug uptake
[16] = Drug uptake in Sprague-Dawley rat blood at 10 mg/kg, po after 0.5 hrs by HPLC method; type: ADME, organism-based; details: read-out: Drug uptake
[17] = Drug uptake in Sprague-Dawley rat blood at 10 mg/kg, po after 1 hr by HPLC method; type: ADME, organism-based; details: read-out: Drug uptake
[18] = Drug uptake in Sprague-Dawley rat blood at 10 mg/kg, po after 1.5 hrs by HPLC method; type: ADME, organism-based; details: read-out: Drug uptake
[19] = Drug uptake in Sprague-Dawley rat blood at 10 mg/kg, po after 2 hrs by HPLC method; type: ADME, organism-based; details: read-out: Drug uptake
[20] = Drug uptake in Sprague-Dawley rat blood at 10 mg/kg, po after 3 hrs by HPLC method; type: ADME, organism-based; details: read-out: Drug uptake
[21] = Drug uptake in Sprague-Dawley rat blood at 10 mg/kg, po after 4 hrs by HPLC method; type: ADME, organism-based; details: read-out: Drug uptake
[22] = Drug uptake in Sprague-Dawley rat blood at 10 mg/kg, po after 6 hrs by HPLC method; type: ADME, organism-based; details: read-out: Drug uptake
[23] = Drug uptake in Sprague-Dawley rat blood at 10 mg/kg, po after 8 hrs by HPLC method; type: ADME, organism-based; details: read-out: Drug uptake
[24] = Drug uptake in Sprague-Dawley rat blood at 10 mg/kg, po after 24 hrs by HPLC method; type: ADME, organism-based; details: read-out: Drug uptake
[25] = system: OS-RC-2; experiment: Antitumor activity against human OS-RC2 cells xenografted in nude mouse assessed as tumor volume at 6 mg/kg administered three times a week through oral gavage measured on day 1 (reference value: 167.51 +/- 17.09 mm3); type: functional
[26] = system: OS-RC-2; experiment: Antitumor activity against human OS-RC2 cells xenografted in nude mouse assessed as reduction in tumor volume at 6 mg/kg administered three times a week through oral gavage measured on day 5 relative to control; type: functional
[27] = system: OS-RC-2; experiment: Antitumor activity against human OS-RC2 cells xenografted in nude mouse assessed as reduction in tumor volume at 6 mg/kg administered three times a week through oral gavage measured on day 8 relative to control; type: functional
[28] = system: OS-RC-2; experiment: Antitumor activity against human OS-RC2 cells xenografted in nude mouse assessed as reduction in tumor volume at 6 mg/kg administered three times a week through oral gavage measured on day 12 relative to control; type: functional
[29] = system: OS-RC-2; experiment: Antitumor activity against human OS-RC2 cells xenografted in nude mouse assessed as reduction in tumor volume at 6 mg/kg administered three times a week through oral gavage measured on day 15 relative to control; type: functional
[30] = system: OS-RC-2; experiment: Antitumor activity against human OS-RC2 cells xenografted in nude mouse assessed as reduction in tumor volume at 6 mg/kg administered three times a week through oral gavage measured on day 19 relative to control; type: functional
[31] = system: OS-RC-2; experiment: Antitumor activity against human OS-RC2 cells xenografted in nude mouse assessed as reduction in tumor volume at 6 mg/kg administered three times a week through oral gavage measured on day 22 relative to control; type: functional
[32] = system: OS-RC-2; experiment: Antitumor activity against human OS-RC2 cells xenografted in nude mouse assessed as reduction in tumor volume at 6 mg/kg administered three times a week through oral gavage measured on day 26 relative to control; type: functional
[33] = system: OS-RC-2; experiment: Antitumor activity against human OS-RC2 cells xenografted in nude mouse assessed as reduction in tumor volume at 6 mg/kg administered three times a week through oral gavage measured on day 29 relative to control; type: functional
[34] = system: OS-RC-2; experiment: Antitumor activity against human OS-RC2 cells xenografted in nude mouse assessed as reduction in tumor volume at 6 mg/kg administered three times a week through oral gavage measured on day 32 relative to control; type: functional
[35] = system: Mus musculus; experiment: Toxicity in nude mouse xenografted with human OS-RC-2 cells assessed as body weight loss at 6 mg/kg administered three times a week through oral gavage measured on day 5 (reference value: 1.9%); type: organism-based; details: in vivo
[36] = system: Mus musculus; experiment: Toxicity in nude mouse xenografted with human OS-RC2 cells assessed as body weight loss at 6 mg/kg administered three times a week through oral gavage and measured on Day 8 (reference value: 8.5 %); type: organism-based; details: in vivo
[37] = system: Mus musculus; experiment: Toxicity in nude mouse xenografted with human OS-RC2 cells assessed as body weight loss at 6 mg/kg administered three times a week through oral gavage and measured on Day 12 (reference value: 15 %); type: organism-based; details: in vivo
[38] = system: Mus musculus; experiment: Toxicity in nude mouse xenografted with human OS-RC2 cells assessed as body weight loss at 6 mg/kg administered three times a week through oral gavage and measured on day 15 (reference value: 20.2 %); type: organism-based; details: in vivo
[39] = system: Mus musculus; experiment: Toxicity in nude mouse xenografted with human OS-RC2 cells assessed as body weight loss at 6 mg/kg administered three times a week through oral gavage and measured on Day 19 (reference value: 23.1 %); type: organism-based; details: in vivo
[40] = system: Mus musculus; experiment: Toxicity in nude mouse xenografted with human OS-RC2 cells assessed as body weight loss at 6 mg/kg administered three times a week through oral gavage and measured on Day 22 (reference value: 23.1 %); type: organism-based; details: in vivo
[41] = system: Mus musculus; experiment: Toxicity in nude mouse xenografted with human OS-RC2 cells assessed as body weight loss at 6 mg/kg administered three times a week through oral gavage and measured on Day 26 (reference value: 28.2 %); type: organism-based; details: in vivo
[42] = system: Mus musculus; experiment: Toxicity in nude mouse xenografted with human OS-RC2 cells assessed as body weight loss at 6 mg/kg administered three times a week through oral gavage and measured on Day 29 (reference value: 31.2 %); type: organism-based; details: in vivo
[43] = system: Mus musculus; experiment: Toxicity in nude mouse xenografted with human OS-RC-2 cells assessed as death at 6 mg/kg administered three times a week through oral gavage after 32 days; type: organism-based; details: in vivo, 768 h
[44] = system: Mus musculus; experiment: Toxicity in nude mouse xenografted with human OS-RC-2 cells assessed as body weight at 6 mg/kg administered three times a week through oral gavage measured on day 1 (reference value: 20.4 +/- 0.33 g); type: organism-based; details: in vivo

CO[C@H]1C[C@@H]2CC[C@@H](C)[C@@](O)(O2)C(=O)C(=O)N2CCCC[C@H]2C(=O)O[C@H]([C@H](C)C[C@@H]2CC[C@@H](OCCO)[C@H](OC)C2)CC(=O)[C@H](C)/C=C(\C)[C@@H](O)[C@@H](OC)C(=O)[C@H](C)C[C@H](C)\C=C/C=C/C=C/1C
Activity [1]: 11.7%
solubility [2]: 1 µg/mL (≈ 1.04 µM)
IC50 [3]: 52.3 µM
IC50 [4]: 99.8 µM
IC50 [5]: 57.3 µM
IC50 [6]: 30.2 µM
IC50 [7]: 62.5 µM
Activity [8]: 0.4 g
inhibition in vivo at 6 mg/kg [9]: 41.1%
AUC(0-inf) [10]: 454 ng·h/mL
AUC(0-t) [11]: 454 ng·h/mL
Cmax [12]: 126 ng/mL
Tmax [13]: 1.91 h
half-life [14]: 2.2 h
concentration at 0.25 h [15]: 17.4 ng/mL
concentration at 0.5 h [16]: 100 ng/mL
concentration at 1 h [17]: 99.2 ng/mL
concentration at 1.5 h [18]: 90.4 ng/mL
concentration at 2 h [19]: 69.7 ng/mL
concentration at 3 h [20]: 64.3 ng/mL
concentration at 4 h [21]: 61.4 ng/mL
concentration at 6 h [22]: 32.4 ng/mL
concentration at 8 h [23]: 16.3 ng/mL
concentration at 24 h [24]: 2.28 ng/mL
Activity [25]: 167.38 mm3
T/C [26]: 79%
T/C [27]: 76%
T/C [28]: 0.72%
T/C [29]: 0.66%
T/C [30]: 0.71%
T/C [31]: 0.69%
T/C [32]: 0.71%
T/C [33]: 0.72%
T/C [34]: 0.77%
Activity [35]: 2.7%
Activity [36]: 3.1%
Activity [37]: 8.2%
Activity [38]: 8.7%
Activity [39]: 9.7%
Activity [40]: 9.7%
Activity [41]: 9.1%
Activity [42]: 10.5%
Activity [43]: Non-Toxic
Activity [44]: 20.94 g
